From BindingDB's records for doi:10.1016/j.chembiol.2010.07.014 (Brandeis University, 2010) come the findings set out here.

Broadly, the IC50 is the concentration at which inhibition is half-maximal. A lower IC50 goes with greater potency.

What all share (assay): Inhibition Assay
Common to all, as to conditions: pH 8; 25 °C

The target of assay [1] is Inosine-5'-monophosphate dehydrogenase (Streptococcus pyogenes, UniProt P0C0H6). The source says:
(§1) Inhibition assay using inosine 5'-onophosphate dehydrogenase (IMPD).

For assay [2], the target named is T1, Inosine-5'-monophosphate dehydrogenase (Helicobacter pylori (strain G27), UniProt B5Z7J4).
T1 sequence (B5Z7J4 whole entry): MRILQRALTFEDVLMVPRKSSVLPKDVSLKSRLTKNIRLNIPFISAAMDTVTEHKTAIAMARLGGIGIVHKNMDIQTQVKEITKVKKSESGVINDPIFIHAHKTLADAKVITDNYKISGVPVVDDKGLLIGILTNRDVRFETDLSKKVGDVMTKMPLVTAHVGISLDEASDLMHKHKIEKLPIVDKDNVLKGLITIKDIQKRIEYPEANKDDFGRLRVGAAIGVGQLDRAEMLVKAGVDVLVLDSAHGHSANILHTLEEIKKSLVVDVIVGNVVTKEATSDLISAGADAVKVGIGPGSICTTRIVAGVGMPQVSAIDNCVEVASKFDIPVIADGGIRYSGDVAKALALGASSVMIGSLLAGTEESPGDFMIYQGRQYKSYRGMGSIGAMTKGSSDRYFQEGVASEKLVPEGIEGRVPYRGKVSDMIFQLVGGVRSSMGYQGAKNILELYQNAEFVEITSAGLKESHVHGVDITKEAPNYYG
Text: as §1

Assay [3] has as its target T2, Inosine-5'-monophosphate dehydrogenase (Borreliella burgdorferi (strain ATCC 35210 / DSM 4680 / CIP 102532 / B31), UniProt P49058).
T2 sequence (P49058 whole entry): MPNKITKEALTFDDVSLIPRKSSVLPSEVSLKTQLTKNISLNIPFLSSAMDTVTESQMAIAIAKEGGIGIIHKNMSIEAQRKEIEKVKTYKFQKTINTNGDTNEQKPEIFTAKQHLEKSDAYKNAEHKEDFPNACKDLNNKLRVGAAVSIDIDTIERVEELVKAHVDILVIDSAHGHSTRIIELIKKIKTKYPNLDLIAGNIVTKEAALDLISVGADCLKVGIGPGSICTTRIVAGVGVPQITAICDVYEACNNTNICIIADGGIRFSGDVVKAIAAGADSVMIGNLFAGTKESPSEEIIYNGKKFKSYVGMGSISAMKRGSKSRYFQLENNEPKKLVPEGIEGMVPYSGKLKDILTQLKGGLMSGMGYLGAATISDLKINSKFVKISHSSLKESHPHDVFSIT
Text: as §1

The target of assay [4] is T3, Inosine-5'-monophosphate dehydrogenase (Cryptosporidium parvum, UniProt Q8T6T2).
T3 sequence (Q8T6T2 whole entry): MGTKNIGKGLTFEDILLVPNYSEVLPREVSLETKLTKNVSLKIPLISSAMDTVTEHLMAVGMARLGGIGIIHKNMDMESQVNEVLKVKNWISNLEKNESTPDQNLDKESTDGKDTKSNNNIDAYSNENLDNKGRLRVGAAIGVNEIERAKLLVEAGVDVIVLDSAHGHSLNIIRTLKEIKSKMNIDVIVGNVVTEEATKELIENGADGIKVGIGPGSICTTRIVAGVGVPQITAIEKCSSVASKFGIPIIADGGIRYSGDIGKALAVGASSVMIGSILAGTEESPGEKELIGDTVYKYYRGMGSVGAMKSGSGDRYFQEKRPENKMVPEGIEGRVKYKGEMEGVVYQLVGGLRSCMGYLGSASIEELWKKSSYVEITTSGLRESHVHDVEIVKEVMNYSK
Text: as §1

The structures appear in SMILES notation.

Sequence of Inosine-5'-monophosphate dehydrogenase (Streptococcus pyogenes, UniProt P0C0H6) (P0C0H6 whole entry): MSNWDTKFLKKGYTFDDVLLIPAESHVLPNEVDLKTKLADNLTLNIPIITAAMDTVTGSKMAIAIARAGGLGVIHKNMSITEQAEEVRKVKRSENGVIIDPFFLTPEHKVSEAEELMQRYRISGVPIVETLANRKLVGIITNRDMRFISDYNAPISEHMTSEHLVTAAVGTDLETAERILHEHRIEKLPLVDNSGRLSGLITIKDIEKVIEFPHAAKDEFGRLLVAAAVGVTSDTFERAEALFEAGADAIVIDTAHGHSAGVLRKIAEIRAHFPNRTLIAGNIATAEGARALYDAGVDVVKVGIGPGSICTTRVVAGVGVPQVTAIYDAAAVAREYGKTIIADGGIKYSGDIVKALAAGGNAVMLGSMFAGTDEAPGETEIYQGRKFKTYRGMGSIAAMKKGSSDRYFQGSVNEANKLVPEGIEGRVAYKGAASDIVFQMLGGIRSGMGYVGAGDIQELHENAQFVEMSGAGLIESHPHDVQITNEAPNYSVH

In the case of `CC(Oc1ccccc1)C(=O)Nc1ccc(Cl)cc1` (centres undefined), the IC50 stood at 96000 nM in assay [1], 2200 nM in assay [2] and 1400 nM in assay [3].

Regarding `Nc1ccc(C(=O)OCc2nc3cc4ccccc4cc3[nH]2)cc1` [1H-naphtho[2,3-d]imidazol-2-ylmethyl 4-aminobenzoate, Compound G], the IC50 in assay [1] was 550 nM; in assay [2] it was 300 nM; in assay [4], 100 nM; in assay [3] it was 220 nM.

As to `Nc1ccc(C(=O)OCCCc2nc3cc4ccccc4cc3[nH]2)cc1` [3-{1H-naphtho[2,3-d]imidazol-2-yl}propyl 4-aminobenzoate, Compound H], the IC50 in assay [1] worked out at 860 nM; in assay [2], 1200 nM; in assay [4], 900 nM; in assay [3] it was 900 nM.

For `COc1ccc(NC(=O)Cc2nn(C)c(=O)c3ccccc23)cc1` [N-(4-methoxyphenyl)-2-(3-methyl-4-oxo-3,4-dihydrophthalazin-1-yl)acetamide, Compound D], the 50% inhibitory concentration (IC50) in assay [1] is 49000 nM; in assay [2], 3000 nM; in assay [4] it was 5400 nM; in assay [3] it was 1700 nM.

As to `COc1ccc(NC(=O)Cc2cccc3ccccc23)cc1` [N-(4-methoxyphenyl)-2-(naphthalen-1-yl)acetamide, Compound B], the half-inhibitory concentration (IC50) in assay [1] was 85000 nM; in assay [2], 1300 nM; in assay [4], 1600 nM; in assay [3] it was 1800 nM.

Take `COc1ccc(NC(=O)Cn2c(-c3cscn3)nc3ccccc32)cc1` [N-(4-methoxyphenyl)-2-[2-(1,3-thiazol-4-yl)-1H-1,3-benzodiazol-1-yl]acetamide, Compound C]: the IC50 in assay [1] amounted to 70000 nM; in assay [2], 600 nM; in assay [4] it was 1200 nM; in assay [3], 600 nM.

As to `O=C(Cn1c(-c2ccccn2)nc2ccccc21)Nc1ccc2ccccc2c1` [N-(naphthalen-2-yl)-2-[2-(pyridin-2-yl)-1H-1,3-benzodiazol-1-yl]acetamide, Compound C91], the IC50 in assay [1] was 5.4 nM; in assay [2] it was 1.1 nM; in assay [4], 8 nM.

For the molecule `CCn1c(SCC(=O)Nc2ccc(OC)cc2)nc2ccsc2c1=O` [l-4-oxo-3H,4H-thieno[3,2-d]pyrimidin-2-yl}sulfanyl)-N-(4-methoxyphenyl)acetamide, Compound F], the IC50 in assay [1] came to 13000 nM; in assay [2] it was 1100 nM; in assay [4], 1400 nM; in assay [3], 800 nM.

Take `COC(=O)c1c(C)c(=O)[nH]c2ccccc12` [methyl 3-methyl-2-oxo-1,2-dihydroquinoline-4-carboxylate, Compound E]: the IC50 in assay [1] amounted to 15000 nM; in assay [2] it was 1500 nM; in assay [4], 1600 nM; in assay [3], 900 nM.
